Test results: patent US20260356803A1, “Nicotinamide derivatives” (Board of Regents, The University of Texas System, priority 2024, published 2026)
Entries after “also recorded” stand apart in the source; their conditions may differ.

Assays:
[1] = system: mouse embryonic fibroblasts; conditions: cited from earlier work
Schwann cells = conditions: cited from earlier work
[2] = mice; dosed orally (b5); listed as compound 21; cited from earlier work
primary mouse GBM cells = conditions: screen of 200,000 synthetic compounds; cited from earlier work
[3] = system: mouse and human MPNST cell lines; conditions: cited from earlier work
[4] = system: human MPNST cells subcutaneously xenografted into mice; conditions: cited from earlier work
HCT116 cells = assay: Cas9-expressing HCT116 cell viability; type: cell-based
Excerpt: To gain insight into the mechanism of 9 and the relevance of Nam, we pursued two independent and complementary unbiased genetic approaches. First, we performed a genome-wide pooled Clustered Regularly Interspaced Short Palindromic Repeats (CRISPR) and CRISPR-associated protein 9 (Cas9) knockout screen to identify genes whose loss of function can enhance or suppress compound 9 activity. […] We cultured Cas9-expressing HCT116 cells in 10% FBS Nam-free DMEM and transduced with a lentiviral single guide RNA (sgRNA) library designed to silence 19,114 human genes.^11 These cells were treated with either vehicle (DMSO) or 9 for 30 days by which time the 9-treated cells had 7.6 fewer population doublings. Then, relative sgRNA sequences in the resulting cells were determined by massively parallel sequencing of PCR products amplified from genomic DNA, and the relative impact of each gene was derived from the sgRNA reads.
(§1) These observations, taken together, support the hypothesis that the activity of compound 9 depends on NAMPT and NMNAT1.
(§2) In 96-well assay plates (Corning #2903), 2,000 cells were plated per well in 100 μL of medium and allowed to adhere overnight. The next day, compounds or Nam suspended in DMSO were dispensed to the assayed wells using a D300e Digital Dispenser (Tecan). All wells were normalized to 0.5% DMSO. 72 hours after incubation at 37 °C in 5% CO2, cell viability was assayed using an ATP-based luminescent viability assay, CellTiter-Glo (Promega #G8462). CellTiter-Glo substrate was mixed 1:1 with phosphate-buffered saline (PBS) supplemented with 1% Triton X-100, and 40 μL of this mixture was added to the assay wells. After the plates were shaken on a microplate shaker for 10 minutes at room temperature, luminescence was recorded using a Synergy 2 Microplate Reader or Cytation 5 plate reader (BioTek). In Prism 9 software (GraphPad), ten-point dose response curves were plotted with baseline-correction to the vehicle control well, and IC50 values were calculated by curve fitting using asymmetric (five parameter), least squares fit.

[5] = Co-treatment of 9 with sublethal FK866; type: cell-based
Procedure: as §1, §2

[6] = molecular target: T1, recombinant human inosine monophosphate dehydrogenase 2 (IMPDH2) (Homo sapiens, UniProt P12268); assay: IMPDH2 enzyme assay with reaction extracts; type: biochemical; conditions: role: inhibitor; extract of overnight reaction of 9 with NAMPT and NMNAT added at 40% v/v; 500 uM NAD, 250 uM IMP
T1 construct: NADH absorbance assay with extracts of NAMPT/NMNAT reactions
Excerpt: Given that vacor, 3-AP, and compound 21 are all metabolized to toxic, NAD-like derivatives through NAMPT and NMNAT, we hypothesized that their anti-cancer activity may also depend on SARM1. To test this, we compared the toxic effects of vacor, 3-AP, and 9 in either wild type cells or cells in which we used CRISPR to silence SARM1. […] These observations highlight that even though these different scaffolds are toxified through the same mechanism, the resulting metabolites may have different activities. We next co-titrated guanosine, which is known to rescue tiazofurin by bypassing IMPDH in guanylate synthesis, with each of the above small molecules. […] To test this hypothesis, we set up in vitro reactions with different combinations of 9, NAMPT and NMNAT. After incubation, metabolites were extracted, reconstituted in aqueous solution and then co-incubated with an established IMPDH2 enzyme assay.
IMPDH activity was measured by monitoring NADH production through the change in absorbance at […] as previously described [PMID: 13428767]. […] Absorbance was measured every 30 seconds for 30 minutes on a BioTek Cytation 5 plate reader (Agilent, USA) at 37 °C. IMPDH2 activity was determined from the slope of absorbance vs. time plots. […]

iHCT116 cells = assay: iHCT116 cell viability with or without ectopic NMNAT1 expression; type: cell-based
Excerpt: Second, we screened for resistance to 9 in iHCT116 cells, a system that uses inducible mutagenesis and forward genetics to find compound-resistant mutations and thus can reveal both loss of function and gain of function alleles that suppress activity. The iHCT116 system is a barcoded cell line in which we temporally control mutagenesis by the addition of indole acetic acid (IAA) mediated degradation of the mismatch repair protein MLH1.^12 MLN4924 is a small molecule toxin that we use as a positive control to verify that IAA treatment leads to increased mutations. By degrading MLH1 and increasing the overall mutation rate, IAA treatment increases the frequency of UBA3 mutations, leading to a higher rate of MLN4924 resistance. […] Having previously established a relationship between either NMNAT1 levels or NAMPT activity and compound resistance, we analyzed the levels of both enzymes in multiple resistant clones that harbored unique barcode sequences. […] To test whether reduced NMNAT1 levels in these clones contributed to resistance, we ectopically expressed NMNAT1 in either the parental cells or a representative resistant clone with low NMNAT1 expression.
as §2

| SMILES | toxicity to mouse embryonic fibroblasts [1] | toxicity to Schwann cells (Schwann cells) | bioavailability [2] | anti-proliferative activity (primary mouse GBM cells) | toxicity to MPNST cell lines [3] | toxic effects in mice ([4]; mice bearing MPNST xenografts) | growth of xenograft tumors ([4]; mice, listed as compound 21) | rescue by 100 μM Nam (HCT116 cells; 10% FBS Nam-free DMEM) | IC50 (HCT116 cells; Cas9-expressing HCT116, 10% FBS Nam-free DMEM) [µM] | average increase in IC50 on NMNAT1 knockout (HCT116 cells; HCT116, three independent NMNAT1 sgRNAs) [fold] | increase in IC50 of 9 with FK866 ([5]; addition of 278 pM FK866) [fold] | increase in IC50 of 9 with FK866 ([5]; addition of 833 pM FK866) [fold] | inhibition of IMPDH activity [6] | decrease in IC50 on ectopic NMNAT1 expression (iHCT116 cells; parental iHCT116) [fold] | IC50 (iHCT116 cells; parental iHCT116, NMNAT1-expression) [µM] | IC50 (iHCT116 cells; parental iHCT116, mock-infected) [µM] | IC50 (iHCT116 cells; representative resistant clone with low NMNAT1 expression) [µM] | decrease in IC50 on ectopic NMNAT1 expression (iHCT116 cells; resistant clone) [fold] | IC50 (iHCT116 cells; resistant clone with ectopic NMNAT1 expression) [µM] |
| --- | --- | --- | --- | --- | --- | --- | --- | --- | --- | --- | --- | --- | --- | --- | --- | --- | --- | --- | --- |
| O=C(Nc1cccnc1)c1cccs1 [Compound 1, N-(pyridin-3-yl)thiophene-2-carboxamide] | nontoxic | nontoxic | bioavailable when dosed orally; also recorded: bioavailable in mice | hit | selectively toxic | without obvious toxic effects | inhibited the growth; also recorded: reduces the growth of xenograft tumors | – | – | – | – | – | – | – | – | – | – | – | – |
| O=C(Nc1cccs1)c1cccnc1 [Compound 9, N-(Thiophen-2-yl)nicotinamide] | – | – | – | – | – | – | – | rescued by 100 μM Nam | 0.0208 | 6.0 | 2.9 | 15.4 | substantial inhibition | 1.85 | 0.0269 | 0.0497 | 0.574 | 9.58 | 0.0599 |
